Experimental data published in publication PMC6792352, “Limited Chemical Structural Diversity Found to Modulate Thyroid Hormone Receptor in the Tox21 Chemical Library” (Environmental Health Perspectives, 2019).
Structures can show the parent of a compound that is named as a salt.

Test: in vitro
Conditions: rat, gh3-tre-luc cells

Structure (SMILES) | CC50 at 24 h (AC50 (uM) modified / 1000) [µM] | also measured
CN(N=O)c1ccccc1 [Nitrosomethylaniline] | > 90 | 
CC(C)OC(=O)c1cc(C(=O)OC(C)C)cc([N+](=O)[O-])c1 [Nitrothal-isopropyl] | > 90 | 
NC(N)=NN=C(/C=C/c1ccc([N+](=O)[O-])o1)/C=C/c1ccc([N+](=O)[O-])o1 [Nitrovin] | 1.82 | 
O=[N+]([O-])c1ccc(O)c2ncccc12 [Nitroxoline] | 4.94 | 
Cc1cccc(Nc2ncccc2C(=O)O)c1C [Nixylic acid] | > 50 | 
CCN(CC)Cc1nccn1-c1ccc([N+](=O)[O-])cc1C(=O)c1ccccc1Cl [Nizofenone] | > 50 | 
COC(=O)Nc1nc2ccc(C(=O)c3cccs3)cc2[nH]1 [Nocodazole] | 0.337 | 
Cc1ccc2nc(N)[nH]c(=O)c2c1Sc1ccncc1 [Nolatrexed dihydrochloride] | > 50 | 
CN1Cc2c(N)cccc2C(c2ccccc2)C1 (stereo not shown) [Nomifensine] | 38.8 | 
CCCCCCCCC=O [Nonanal] | > 90 | 
CCCCCCCCC [Nonane] | > 90 | 
O=C(O)CCCCCCCC(=O)O [Nonanedioic acid] | > 90 | 
CCCCCCCCC(=O)O [Nonanoic acid] | > 90 | 
CCCCCCCCC(=O)Cl [Nonanoyl chloride] | > 90 | 
CCCCCCCCC(=O)NCc1ccc(O)c(OC)c1 [Nonivamide] | > 90 | 
CCCCCCCCCOC(C)=O [Nonyl acetate] | > 90 | 
CCCCCCCCCOC(=O)c1ccc(O)cc1 [Nonylparaben] | 21.8 | 
C=C(C)[C@@H]1CCC2=CC(=O)C[C@@H](C)[C@]2(C)C1 [Nootkatone] | > 90 | 
COc1ccc2c3c1O[C@H]1[C@@H](O)C=C[C@H]4[C@@H](C2)NCC[C@@]341 [Norcodeine] |  | CC50 at 24 h (AC50 (uM) modified / 1000, Tox21_110001=Tox21_112027, viability, 1 nM T3 present, 24 h): > 50 µM
C[C@H](Cc1ccc(O)c(O)c1)[C@@H](C)Cc1ccc(O)c(O)c1 [Nordihydroguaiaretic acid] | 8.42 | 
C#C[C@]1(O)CC[C@H]2[C@@H]3CCC4=CC(=NO)CC[C@@H]4[C@H]3CC[C@@]21CC [Norelgestromin] | 35.1 | 

Structure (SMILES) | CC50 at 24 h (AC50 (uM) modified / 1000) [µM] | also measured
NC[C@H](O)c1ccc(O)c(O)c1 [Norepinephrine] | 57.7 | 
C#C[C@]1(OC(C)=O)CC[C@H]2[C@@H]3CCC4=CC(=O)CC[C@@H]4[C@H]3CC[C@@]21C [Norethindrone acetate] | > 50 | 
C#C[C@]1(O)CC[C@H]2[C@@H]3CCC4=CC(=O)CC[C@@H]4[C@H]3CC[C@@]21C [Norethindrone] | 59.2 | 
C#C[C@]1(O)CC[C@H]2[C@@H]3CCC4=C(CCC(=O)C4)[C@H]3CC[C@@]21C [Norethynodrel] | > 20 | 
O=C1NC(=O)[C@H]2[C@@H]1[C@@H]1C=C[C@H]2C1 [Noreximide] | > 50 | 
NCC(O)c1cccc(O)c1 (stereo not shown) [Norfenefrine hydrochloride] | > 50 | 
CNc1cnn(-c2cccc(C(F)(F)F)c2)c(=O)c1Cl [Norflurazon] | > 90 | 
c1ccc2c(c1)[nH]c1cnccc12 [Norharman] | > 90 | 
C#C[C@]1(OC(=O)CCCCCC)CC[C@H]2[C@@H]3CCC4=CC(=O)CC[C@@H]4[C@H]3CC[C@@]21C [Noristerat] | 10.7 | 
Oc1ccccc1/C=N/Cc1ccccc1 [Norletimol] | > 50 | 
Oc1ccc2c3c1O[C@H]1[C@@H](O)C=C[C@H]4[C@@H](C2)NCC[C@@]341 [Normorphine] |  | CC50 at 24 h (AC50 (uM) modified / 1000, Tox21_110001=Tox21_113540, viability, 1 nM T3 present, 24 h): > 50 µM
NCCCNCCCN [Norspermidine] | 57.5 | 
CNCCC=C1c2ccccc2CCc2ccccc21 [Nortriptyline hydrochloride] | 12.6 | 
COc1ccc2c(c1OC)C(=O)O[C@@H]2[C@H]1c2c(cc3c(c2OC)OCO3)CCN1C [Noscapine] | 15 | 
O=C(NC(=O)c1c(F)cccc1F)Nc1ccc(OC(F)(F)C(F)OC(F)(F)F)c(Cl)c1 (stereo not shown) [Novaluron] | > 50 | 
CO[C@@H]1[C@@H](OC(N)=O)[C@@H](O)[C@H](Oc2ccc3c(O)c(NC(=O)c4ccc(O)c(CC=C(C)C)c4)c(=O)oc3c2C)OC1(C)C [Novobiocin sodium] | > 20 | 
OC(c1ccc(F)cc1)(c1cncnc1)c1ccccc1Cl (stereo not shown) [Nuarimol] | > 90 | 
O=C1N=C2SCCN2C(=O)C1Cc1ccc(Cl)cc1 (stereo not shown) [Nuclomedone] | > 50 | 
CC(CCc1ccccc1)NC(C)C(O)c1ccc(O)cc1 (stereo not shown) [Nylidrin] | 41.8 | 
C[C@@H]1[C@H](O)[C@@H](C)/C=C/C=C/CC/C=C/C=C/C=C/C=C/[C@H](O[C@@H]2O[C@H](C)[C@@H](O)[C@H](N)[C@@H]2O)C[C@@H]2O[C@](O)(C[C@@H](O)[C@H](O)CC[C@@H](O)C[C@@H](O)C[C@@H](O)CC(=O)O[C@H]1C)C[C@H](O)[C@H]2C(=O)O [Nystatin] | > 50 | 
COc1nc(N)nc2nc[nH]c12 [O6-Methylguanine] | > 90 | 

Structure (SMILES) | CC50 at 24 h (AC50 (uM) modified / 1000) [µM] | also measured
CC1CC(=O)NN=C1c1ccc(NCC(C)(C)NCC(O)COc2cc(Cl)ccc2C#N)cc1 (stereo not shown) [Oberadilol] | > 50 | 
CCCCCCCCOc1ccc(C(=O)c2ccccc2)c(O)c1 [Octabenzone] | > 90 | 
Brc1cc(Oc2cc(Br)c(Br)c(Br)c2Br)c(Br)c(Br)c1Br [Octabromodiphenyl ether] | > 90 | 
CCCCCCCCCCCCCCCCCC#N [Octadecanenitrile] | > 90 | 
CCCCCCCCCCCCCCCCCC(=O)OCC(C)O (stereo not shown) [Octadecanoic acid, monoester with 1,2-propanediol] | 20.7 | 
CCCCCCCCCCCCCCCCCCCl [Octadecyl chloride] | > 5 | 
CCCCCCCCCCCCCCCCCCOS(=O)(=O)O [Octadecyl sulfate sodium salt] | 53.1 | 
C=CC(=O)OCC1CC2CC1C1CCC(COC(=O)C=C)C21 (stereo not shown) [Octahydro-1H-4,7-methanoindene-1,5-diyldimethanediyl bisprop-2-enoate] | 75.1 | 
C1C[C@@H]2[C@H]3CC[C@H](C3)[C@@H]2C1 [Octahydro-exo-4,7-methano-1H-indene] | > 90 | 
C[Si]1(C)O[Si](C)(C)O[Si](C)(C)O[Si](C)(C)O1 [Octamethylcyclotetrasiloxane] | > 90 | 
C[Si](C)(C)O[Si](C)(C)O[Si](C)(C)C [Octamethyltrisiloxane] | > 90 | 
CCCCCCCC=O [Octanal] | > 90 | 
CCCCCCCC [Octane] | > 90 | 
O=C(O)CCCCCCC(=O)O [Octanedioic acid] | > 90 | 
CCCCCCCC#N [Octanenitrile] | > 90 | 
CCCCCCCC(=O)O [Octanoic acid] | > 90 | 
CCOc1cc(-c2nccc3cc(OC)c(OC)cc23)cc(OCC)c1OCC [Octaverine] | 28.2 | 
CCCC[C@H](CC)COC(=O)/C=C/c1ccc(OC)cc1 [Octinoxate] | > 90 | 
CN1CCN(C2Cc3ccccc3Sc3ccc(Cl)cc32)CC1 (stereo not shown) [Octoclothepine maleate] | 7.55 | 
NCC(O)c1ccc(O)cc1 (stereo not shown) [Octopamine hydrochloride] | > 90 | 
C[C@@H](O)[C@@H]1NC(=O)[C@H](CCCCN)NC(=O)[C@@H](Cc2c[nH]c3ccccc23)NC(=O)[C@H](Cc2ccccc2)NC(=O)[C@@H](NC(=O)[C@H](N)Cc2ccccc2)CSSC[C@@H](C(=O)N[C@H](CO)[C@@H](C)O)NC1=O [Octreotide] | > 50 | 

Structure (SMILES) | CC50 at 24 h (AC50 (uM) modified / 1000) [µM] | also measured
CCCCCCCCOC(C)=O [Octyl acetate] | > 90 | 
CCCCCCCCO[C@@H]1O[C@H](CO)[C@@H](O)[C@H](O)[C@H]1O [Octyl beta-D-glucopyranoside] | > 90 | 
CCCCCCCCCCOC(=O)c1ccccc1C(=O)OCCCCCCCC [Octyl decyl phthalate] | > 90 | 
CCCCCCCCOC(=O)c1cc(O)c(O)c(O)c1 [Octyl gallate] | 2.6 | 
C=CC(=O)OCCCCCCCC [Octyl prop-2-enoate] | > 90 | 
CCCCC(CC)CN1C(=O)[C@@H]2[C@H](C1=O)[C@@H]1C=C[C@H]2C1 (stereo partly shown) [Octylbicycloheptenedicarboximide] | 53.7 | 
CCCCCCCCP(=O)(O)O [Octylphosphonic acid] |  | CC50 at 24 h (AC50 (uM) modified / 1000, Tox21_110001=Tox21_302242, viability, 1 nM T3 present, 24 h): > 90 µM
CC1COc2c(N3CCN(C)CC3)c(F)cc3c(=O)c(C(=O)O)cn1c23 (stereo not shown) [Ofloxacin] | > 50 | 
O=C(O)CN(CC(=O)O)Cc1cc2c(cc1O)Oc1cc(O)c(CN(CC(=O)O)CC(=O)O)cc1C21OC(=O)c2ccccc21 [Oftasceine] | > 50 | 
Cc1cc2c(s1)Nc1ccccc1N=C2N1CCN(C)CC1 [Olanzapine] | 15.7 | 
Cc1c(C(=O)NCCO)[n+]([O-])c2ccccc2[n+]1[O-] [Olaquindox] | > 50 | 
CO[C@H]1C[C@H](O[C@H]2[C@H](C)[C@@H](O[C@@H]3O[C@H](C)C[C@H](N(C)C)[C@H]3O)[C@@H](C)C[C@@]3(CO3)C(=O)[C@H](C)[C@@H](O)[C@@H](C)[C@@H](C)OC(=O)[C@@H]2C)O[C@@H](C)[C@@H]1O [Oleandomycin phosphate] | > 20 | 
CCCCCCCC/C=C\CCCCCCCC(=O)O [Oleic acid] | > 90 | 
C/C(=N\Cc1ccccc1)c1ccccc1O [Oletimol] | > 50 | 
CCCCCc1cc(O)cc(O)c1 [Olivetol] |  | CC50 at 24 h (AC50 (uM) modified / 1000, Tox21_110001=Tox21_202349, viability, 1 nM T3 present, 24 h): 78.4 µM; CC50 at 24 h (AC50 (uM) modified / 1000, Tox21_110001=Tox21_303332, viability, 1 nM T3 present, 24 h): 75.4 µM
CCCc1nc(C(C)(C)O)c(C(=O)OCc2oc(=O)oc2C)n1Cc1ccc(-c2ccccc2-c2nnn[nH]2)cc1 [Olmesartan medoxomil] | > 50 | 
CN(C)CC/C=C1/c2ccccc2COc2ccc(CC(=O)O)cc21 [Olopatadine hydrochloride] | > 50 | 
Cc1[nH]c(=O)c(C#N)cc1-c1ccc2nccn2c1 [Olprinone hydrochloride] | > 50 | 
